The values that follow come from US5436138A, “Method for protein N-myristoylation” (Washington University, priority 1993, dated 1995).

Series [1] deals with T1, yeast NMT coexpressed with murine PK-A C-subunit in E. coli strain JM101 (Saccharomyces cerevisiae, UniProt P14743, S2A).
T1 construct: metabolic labeling in cells
Put plainly: [3H]Fatty acid labeling of PK-A C-subunit produced in E. coli coexpressing yeast NMT1. Format: cell-based, S. cerevisiae. The conditions noted are these: for incorporation of [3H]fatty acid into the C-subunit of PK-A: E. coli JM101 with NMT1 and wild type Cα plasmids after induction, SDS-PAGE and fluorography. On the procedure:
[^3 H]Fatty acid labeling of PK-A C-subunit produced in E. coli. Four ml cultures of the double transformants were shaken at 37° C. to an OD600 of 0.5 in LB broth+100 μg/ml ampicillin and 100 μg/ml kanamycin sulfate. Isopropyl-β-D-thiogalactopyranoside (IPTG) was then added to a final concentration of 1 mM to induce NMT production (see Results, below). When the cultures reached OD600 =1.0 (approximately 40 min later), nalidixic acid was added to a final concentration of 50 μg/ml to induce C-subunit production (see Results, below). [^3 H]Myristate (New England Nuclear; 39.3 Ci/mmol, 113 μCi added per ml of culture), [^3 H]palmitate (New England Nuclear; 30 Ci/mmol, 143 μCi/ml), or [^3 H]10-(propoxy)decanoate [Heuckeroth and Gordon, Proc. Natl. Acad. Sci. USA 86, 5262-5266 (1989)] (31.7 Ci/mmol, 800 μCi/ml) was added simultaneously with the nalidixic acid. Cultures were shaken for an additional 20 min at 37° C. and the cells were harvested by centrifugation. Lysates were prepared by boiling E. coli contained in the pellet for 10 min in 40 μL of a solution of 125 mM Tris, pH 8.0, 4% SDS, 20% glycerol, 10% β-mercaptoethanol, and 0.2M dithiothreitol. Cell debris was removed by centrifugation and 15 μl aliquots of the supernatant were subjected to SDS-PAGE [Laemmli, Nature 227, 680-685 (1970)] and subsequent fluorography using EN^3 HANCE (New England Nuclear) autoradiography enhancer. For Western blot analyses, 50 μg of reduced and denatured lysate proteins, prepared from unlabeled E. coli producing Gly^2 -C-subunit or Ala^2 -C-subunit, were separated by SDS-PAGE, electroblotted onto nitrocellulose [Burnette, Anal. Biochem. 112, 195-230 (1981)], and the filters probed with polyclonal, monospecific rabbit antisera raised against purified mouse C-subunit. Antigen-antibody complexes were visualized with ^125 I-protein A [Burnette, supra.].

The conditions of series [2]: compared with myristic acid; cited from earlier work.
Another series deals with p60^v-src. The conditions noted are these: membrane versus cytosolic fractions; cited from earlier work.
Substrate in series [3]: C[C@H](NC(=O)[C@H](C)NC(=O)[C@H](CC(N)=O)NC(=O)CN)C(=O)N[C@@H](CO)C(=O)N[C@@H](C)C(=O)N[C@@H](CCCNC(=N)N)C(=O)N[C@@H](CCCNC(=N)N)C(N)=O
Put plainly: coupled in vitro assay for NMT activity, Total E. coli NMT. The conditions noted are these: other: peptide substrate varied, 15 μM myristate. The format is biochemical, S. cerevisiae. On the procedure:
(§1) In vitro assay system for NMT activity. To assess the peptide and acyl-CoA substrate specificities of E. coli-derived S. cerevisiae NMT, crude lysates or partially purified enzyme preparations were added to a coupled in vitro assay system [Towler and Glaser, Proc. Natl. Acad. Sci. USA 83, 2812-2816 (1986)]. The first step of this assay involves enzymatic conversion of radiolabeled fatty acids to their CoA thioesters by Pseudomonas acyl-CoA ligase. This ligase is largely nonspecific for fatty acid substrates [Shimizu et al., Anal. Biochem. 107, 193-198 (1980)]. Octapeptide substrates and NMT were then added to produce acylpeptides. Acylpeptides were purified from the reaction mixture by trichloroacetic acid/methanol precipitation and C18 reverse phase HPLC using a linear gradient of acetonitrile in water [Towler and Glaser, Proc. Natl. Acad. Sci. USA 83, 2812-2816 (1986)].
(§2) The peptide Km and Vmax values shown in the above Table I are averages obtained from 4- or 5-point Lineweaver-Burke plots. These plots were produced using data generated in at least three independent in vitro NMT assays. Varying concentrations of peptides were assayed with 15 μM myristate to determine peptide Km and Vmax values. […] Yeast NMT was from a 570 fold purified preparation [Towler et al., Proc. Natl. Acad. Sci. USA 84, 2708-2712 (1987)]. […] ND=not determined.

Substrate in series [4]: C[C@H](NC(=O)[C@H](C)NC(=O)[C@H](C)NC(=O)[C@H](CC(N)=O)NC(=O)CN)C(=O)N[C@@H](C)C(=O)N[C@@H](CCCNC(=N)N)C(=O)N[C@@H](CCCNC(=N)N)C(N)=O
The description is as above. Format: biochemical, S. cerevisiae. The conditions noted are these: other: peptide substrate varied, 15 μM myristate. As to the method: as §1, §2

Substrate in series [5]: CCCOCCCCCCCCCC(=O)SCCNC(=O)CCNC(=O)[C@H](O)C(C)(C)COP(=O)(O)OP(=O)(O)OC[C@H]1O[C@@H](n2cnc3c(N)ncnc32)[C@H](O)[C@@H]1OP(=O)(O)O
Put plainly: coupled in vitro assay for NMT activity, 45 kDa E. coli NMT. The conditions noted are these: other: fatty acyl-CoA substrate varied, 60 μM GNAAAARR
The format is biochemical, S. cerevisiae. On the procedure: as §1
(§3) To obtain a homogenous preparation of the enzyme, E. coli-produced NMT was further purified by Mono S fast protein liquid chromatography (FPLC).
(§4) The peptide Km and Vmax values shown in the above Table I are averages obtained from 4- or 5-point Lineweaver-Burke plots. These plots were produced using data generated in at least three independent in vitro NMT assays. Varying concentrations of peptides were assayed with 15 μM myristate to determine peptide Km and Vmax values. […] Yeast NMT was from a 570 fold purified preparation [Towler et al., Proc. Natl. Acad. Sci. USA 84, 2708-2712 (1987)]. Synthetic peptide substrates are represented by their conventional one letter amino acid code. […] ND=not determined.

Substrate in series [6]: CCCCCCCCCCCCCCCC(=O)SCCNC(=O)CCNC(=O)[C@H](O)C(C)(C)COP(=O)(O)OP(=O)(O)OC[C@H]1O[C@@H](n2cnc3c(N)ncnc32)[C@H](O)[C@@H]1OP(=O)(O)O
The description is as above. The format is biochemical, S. cerevisiae. The conditions noted are these: other: fatty acyl-CoA substrate varied, 60 μM GNAAAARR
As to the method: as §1, §3, §4

Substrate in series [7]: C[C@H](NC(=O)[C@H](C)NC(=O)[C@H](CC(N)=O)NC(=O)CN)C(=O)N[C@@H](CO)C(=O)N[C@@H](C)C(=O)N[C@@H](CCCNC(=N)N)C(=O)N[C@@H](CCCNC(=N)N)C(N)=O
The series is described as above. The format is biochemical, S. cerevisiae. The conditions noted are these: other: peptide substrate varied, 15 μM myristate. On the procedure: as §1, §3, §4

Substrate in series [8]: CCCCCCCCCCCCCC(=O)SCCNC(=O)CCNC(=O)[C@H](O)C(C)(C)COP(=O)(O)OP(=O)(O)OC[C@H]1O[C@@H](n2cnc3c(N)ncnc32)[C@H](O)[C@@H]1OP(=O)(O)O
Put plainly: cells, lysate or membranes named. The conditions noted are these: other: fatty acyl-CoA substrate varied, 60 μM GNAAAARR

On to `CCCCCCCCCCCCCC(=O)O` [[^3 H]Myristic acid, Myristic acid], for which the “Pronase E digestion product of the labeled C-subunit” value in series [1] (C18 reverse-phase HPLC) is “co-migrated with the chemically synthesized [^3 H]myristoylglycine standard”. For the same molecule, the “incorporation of [3H]fatty acid into the C-subunit of PK-A” value in series [1] was “efficiently linked to the Gly^1 residue of the C-subunit”; in series [1] (listed as [^3 H]myristic acid), “a 40 kDa protein was metabolically labeled”. Also, the “overall efficiency of NMT-catalyzed linkage of the myristoyl moiety to the C-subunit” value in series [1] (in E. coli, estimated from Western blot, incorporated label and specific activity) is roughly 100%.
`CCCOCCCCCCCCCC(=O)O` [[^3 H]10-(propoxy)decanoic acid, 10-(propoxy)decanoic acid]: the results for the “incorporation of [3H]fatty acid into the C-subunit of PK-A” value in series [1] and in series [1] (listed as [^3 H]11-oxamyristate) were “effective alternative substrate for NMT that could be incorporated into the C-subunit of PK-A” and “could also be labeled in a Gly^2 dependent manner”, respectively.
As to `CCCOCCCCCCCCCC(=O)O` [10-(Propoxy)decanoic acid], the hydrophobicity entry in [2] is “reduced hydrophobicity (comparable to decanoic acid)”. The “effect on p60v-src distribution when incorporated in vivo” value in the series with p60^v-src is “significant redistribution of the protein from membrane to cytosolic fractions”.

B1: E. coli-derived S. cerevisiae NMT (Total E. coli NMT) (Saccharomyces cerevisiae S288C; S2A) (protein)
chain: MAEEDKAKKLENLLKLLQLNNDDTSKFTQEQKKAMKDHKFWRTQPVKDFDEKVVEEGPIDKPKTPEDISDKPLPLLSSFEWCSIDVDNKKQLEDVFVLLNENYVEDRDAGFRFNYTKEFFNWALKSPGWKKDWHIGVRVKETQKLVAFISAIPVTLGVRGKQVPSVEINFLCVHKQLRSKRLTPVLIKEITRRVNKCDIWHALYTAGIVLPAPVSTCRYTHRPLNWKKLYEVDFTGLPDGHTEEDMIAENALPAKTKTAGLRKLKKEDIDQVFELFKRYQSRFELIQIFTKEEFEHNFIGEESLPLDKQVIFSYVVEQPDGKITDFFSFYSLPFTILNNTKYKDLGIGYLYYYATDADFQFKDRFDPKATKALKTRLCELIYDACILAKNANMDVFNALTSQDNTLFLDDLKFGPGDGFLNFYLFNYRAKPITGGLNPDNSNDIKRRSNVGVVML
notes: intact 53 kDa (codon 2 Ser to Ala from cloning) plus 45 kDa truncated form
With B1, the values for the Michaelis constant (Km) in series [3] and in series [4] were 0.103 µM and 65.8 µM, respectively.

B2: 45 kDa E. coli NMT (NMT missing the NH2-terminal 39 residues) (Saccharomyces cerevisiae S288C) (protein)
chain: FWRTQPVKDFDEKVVEEGPIDKPKTPEDISDKPLPLLSSFEWCSIDVDNKKQLEDVFVLLNENYVEDRDAGFRFNYTKEFFNWALKSPGWKKDWHIGVRVKETQKLVAFISAIPVTLGVRGKQVPSVEINFLCVHKQLRSKRLTPVLIKEITRRVNKCDIWHALYTAGIVLPAPVSTCRYTHRPLNWKKLYEVDFTGLPDGHTEEDMIAENALPAKTKTAGLRKLKKEDIDQVFELFKRYQSRFELIQIFTKEEFEHNFIGEESLPLDKQVIFSYVVEQPDGKITDFFSFYSLPFTILNNTKYKDLGIGYLYYYATDADFQFKDRFDPKATKALKTRLCELIYDACILAKNANMDVFNALTSQDNTLFLDDLKFGPGDGFLNFYLFNYRAKPITGGLNPDNSNDIKRRSNVGVVML
notes: S2A lies in the removed part
Turning to B2, the Michaelis-Menten constant (Km) in series [5] is 1.2 µM; in series [6], 0.96 µM; in series [7] it was 0.38 µM; in series [8], 0.36 µM.

Broadly, the Km is the substrate concentration at which the rate is half of its maximum.
